Measured values: US20240130368A1, “HERBICIDAL COMPOSITION” (Nippon Soda Co., Ltd., priority 2021, published 2024)
Like-named read-outs stand apart in the source and are kept apart here.

What was measured:
Assay type in all cases: in vivo
Amaranthus palmeri = experiment: Test Example 4: foliar spraying treatment, herbicidal effect from above ground weight; conditions: 3 weeks after spraying
Procedure: (§1) POA allylphenyl ether (4.1 parts by weight), POE-POP glycol (1 part by weight), POE sorbitan laurate (0.8 parts by weight), glycerin (2.6 parts by weight), dimethylformamide (65.9 parts by weight), N-methylpyrrolidone (5.1 parts by weight), cyclohexanone (15.4 parts by weight), and aromatic hydrocarbons (5.1 parts by weight) were mixed and dissolved to prepare an emulsion. The active ingredient (4 mg) of the composition of the present invention was dissolved in this emulsion (100 μL) to prepare a test emulsion. It should be noted that POA means “polyoxyalkylene”, POE means “polyoxyethylene”, and POP means “polyoxypropylene”.
(§2) A 300 cm^2 pot was filled with soil, and seeds of Zea mays, Setaria faberi, Sorghum halepense, Brachiaria platyphylla, Amaranthus palmeri, Senna obtusifolia and Ipomoea hederacea were sown into the surface layer, and then grown in a greenhouse after being covered lightly with soil. When each plant grew to a plant height of 7 to 11 cm, it was used for the test. The test emulsion was diluted so that the amount of the active ingredient became a predetermined amount, and sprayed on the foliage with a small sprayer at a spray water volume of 250 L per hectare.
(§3) For the evaluation of the herbicidal effects, the above ground weights of weeds in the untreated and treated areas were measured for each weed 3 weeks after spraying treatment, and the herbicidal effect (%) was calculated by the following calculation formula.
(§4) In addition, the expected values of the herbicidal effects were calculated from the herbicidal effects in a case where the compound (I) alone was applied and the herbicidal effects in a case where the compound (II) alone was applied by using the Colby's formula (Colby, S. R., Calculating synergistic and antagonistic responses of herbicide combinations, Weeds, 15, pp. 20-22 (1967)).
(§5) M indicates an herbicidal effect (%) in the application of the compound (1) alone, N indicates an herbicidal effect (%) in the application of the compound (II) alone, and E indicates an expected value (%) of the herbicidal effect in the combined application of the compound (I) and the compound (II). When the actual measured value (%) of the herbicidal effect in the combined application of the compound (I) and the compound (II) is greater than the expected value E, it can be regarded that the combined application of the compound (1) and the compound (II) has a synergistic effect.
(§6) Herbicidal effect (%)=[(above ground weight of weeds in untreated area)−(above ground weight of weeds in treated area)/(above ground weight of weeds in untreated area)]×100
(§7) The following grass species were used as grass species to be controlled [scientific names]. • Giant foxtail [Setaria faberi] • Johnson grass [Sorghum halepense] • Broadleaf signalgrass [Brachiaria platyphylla] • Palmer amaranth [Amaranthus palmeri] • Sicklepod [Senna obtusifolia] • Morning glory [Ipomoea hederacea]

Ipomoea hederacea [1] = experiment: as above; conditions: 3 weeks after spraying
Procedure: as §1, §2, §3, §4, §5, §6, §7

Sorghum halepense = experiment: as above; conditions: 3 weeks after spraying
Procedure: as §1, §2, §3, §4, §5, §6, §7

Senna obtusifolia = experiment: as above; conditions: 3 weeks after spraying
Procedure: as §1, §2, §3, §4, §5, §6, §7

Brachiaria platyphylla = experiment: as above; conditions: 3 weeks after spraying
Procedure: as §1, §2, §3, §4, §5, §6, §7

Setaria faberi = experiment: as above; conditions: 3 weeks after spraying
Procedure: as §1, §2, §3, §4, §5, §6, §7

Ipomoea hederacea [2] = experiment: Test Example 6: foliar spraying treatment, herbicidal effect from above ground weight
Procedure: as §1
(§8) A test emulsion was prepared in the same manner as in Test Example 4.
as §2, with “mays” for “mays, Setaria faberi, Sorghum halepense, Brachiaria platyphylla, Amaranthus palmeri, Senna obtusifolia”, “9” for “11”, “cm,” for “cm, it was used for”, “above” for “test. The”
(§9) Test Examples 6-1 and 6-3 were evaluated in the same manner as in Test Example 4.
(§10) The expected values of the herbicidal effects in Test Example 6-2 were calculated using the following Colby's formula (Colby, S. R., Calculating synergistic and antagonistic responses of herbicide combinations, Weeds, 15, pp. 20-22 (1967)).
(§11) X indicates an herbicidal effect (%) by applying the compound (1) alone, Y and Z each indicate an herbicidal effect (%) by applying one of the two types of the compounds (II) alone, and E indicates an expected value (%) of the herbicidal effect by applying combinations of the compound (I) and two types of the compounds (II).
(§12) When the actual measured value (%) of the herbicidal effect by the combined application of the compound (I) and two types of the compounds (11) is greater than the expected value E, it can be regarded that the combined application of the compound (1) and two types of the compounds (II) has a synergistic effect.
The following grass species were used as grass species to be controlled [scientific names]. • Morning glory [Ipomoea hederacea]

Zea mays [3] = experiment: Test Example 4: foliar spraying treatment, herbicidal effect from above ground weight (useful plant); conditions: 3 weeks after spraying
Procedure: as §1, §2, §3
as §4, with “(1967)). […]” for “(1967)).”

Ambrosia artemisiifolia = experiment: Test Example 1: seeds on filter paper moistened with chemical solution, herbicidal effect visually evaluated; conditions: visually evaluated 6 days after treatment; for pest or weed control at 0.2 ppm: amount of active ingredient 0.2 ppm
Procedure: As the compound (1), 1-methoxy-3-methyl-6-(1,1-dioxido-8-(trifluoromethyl)thiochroman-5-yl)-7-oxa-3,4-diazabicyclo[4.1.0]hept-4-en-2-one (Compound (I-3)) was used.
(§13) The compound (I) or compound (II) was prepared into a 5% emulsion using DMF (containing 1.5% Tween) and diluted with water to a prescribed dosage concentration. Commercially available preparations were dissolved in water and adjusted to a prescribed dosage concentration.
(§14) Seeds were soaked in 0.6% sodium hypochlorite for a predetermined time for surface sterilization and washed with water for use (seed disinfection). Seeds of Ambrosia artemisiifolia were used for the test.
(§15) Filter paper was placed on a cup (diameter: 10 cm, height: 4 cm) with a lid and moistened with 8 ml of chemical solution, and seeds were sown thereon, and after covering with a lid, grown in a constant temperature room.
(§16) The herbicidal effects were visually evaluated, 6 days after the treatment, as the herbicidal effect (%), by comparing with a state of an untreated group using a total of 21 scores of withering index from 0 to 20 (0: mortality rate equivalent to that of the untreated group, 20: mortality rate of 100%).
as §4
(§17) M indicates an herbicidal effect (%) in the application of the compound (I) alone, N indicates an herbicidal effect (%) in the application of the compound (II) alone, and E indicates an expected value (%) of the herbicidal effect in the combined application of the compound (T) and the compound (TT). When the actual measured value (%) of the herbicidal effect in the combined application of the compound (I) and the compound (II) is greater than the expected value E, it can be regarded that the combined application of the compound (I) and the compound (II) has a synergistic effect.

Zea mays [4] = experiment: Test Example 6: foliar spraying treatment, herbicidal effect from above ground weight (useful plant)
Procedure: as §1, §8
as §2, with “mays” for “mays, Setaria faberi, Sorghum halepense, Brachiaria platyphylla, Amaranthus palmeri, Senna obtusifolia”, “9” for “11”, “cm,” for “cm, it was used for”, “above” for “test. The”
as §9, §10, §11, §12
The following plants were used as useful plants [scientific names]. • Corn for animal feed [Zea mays]

Abutilon theophrasti = experiment: Test Example 3: seeds on filter paper moistened with chemical solution, herbicidal effect visually evaluated; conditions: 6 days after the treatment
Procedure: as §13, §14, §15, §16, §4, §17
The herbicidal effects were evaluated by the same method as in Test Example 1 except that the seeds used in the test were changed from Ambrosia artemisiifolia to Abutilon theophrasti.

Lolium multiflorum = experiment: Test Example 5: spraying on the soil surface, herbicidal effect from above ground weight; conditions: Flufenacet alone, 250 gai/ha, sprayed on the soil surface, seven weeks after spraying
Procedure: as §1, §3, §6, §8
(§18) A 300 cm^2 pot was filled with soil, and seeds of Triticum aestivum, multidrug-resistant Alopecurus myosuroides, Lolium multiflorum and Avena fatua were sown into the surface layer, and covered with soil to a thickness of 0.5 to 1 cm. The above test emulsion was diluted so that the amount of the active ingredient became a predetermined amount, and sprayed on the soil surface at a spray water volume of 250 L per hectare, followed by growth in an outdoor environment.
(§19) Seven weeks after spraying, the evaluation was carried out in the same manner as in Test Example 4, except that the above ground weights of weeds in the untreated and treated areas were measured for each weed.
(§20) The following grass species were used as grass species to be controlled [scientific names]. • Blackgrass * [Alopecurus myosuroides] • Italian ryegrass [Lolium multiflorum] • Wild oat [Avena fatua]

Avena fatua = experiment: as above; conditions: Flufenacet alone, 250 gai/ha, sprayed on the soil surface, seven weeks after spraying
Procedure: as §1, §3, §6, §8, §18, §19, §20

[5] = test system: multidrug-resistant Alopecurus myosuroides; experiment: as above; conditions: Flufenacet alone, 250 gai/ha; sprayed on the soil surface; seven weeks after spraying; Alopecurus myosuroides multidrug-resistant strain
Procedure: as §1, §3, §6, §8, §18, §19, §20

Triticum aestivum = experiment: Test Example 5: spraying on the soil surface, herbicidal effect from above ground weight (useful plant); conditions: Flufenacet alone, 250 gai/ha, sprayed on the soil surface, seven weeks after spraying
Procedure: as §1, §3, §6, §8, §18, §19
The following plants were used as useful plants [scientific names]. • Wheat [Triticum aestivum]

Digitaria ciliaris = experiment: Test Example 2: seeds on filter paper moistened with chemical solution, herbicidal effect visually evaluated; conditions: Pinoxaden alone, 0.2 ppm, 6 days after the treatment
[6] = Ambrosia artemisiifolia, 144 h, applied alone, amount of active ingredient 0.8 ppm, read-out: Herbicidal effect (%)

CCOCN(C(=O)CCl)c1c(C)cccc1CC [Acetochlor]
Actual measured value of herbicidal effect (Amaranthus palmeri; Acetochlor alone, 1,000 gai/ha): 50%
Actual measured value of herbicidal effect (Ipomoea hederacea [1]; Acetochlor alone, 1,000 gai/ha): 20%
Actual measured value of herbicidal effect (Sorghum halepense; Acetochlor alone, 1,000 gai/ha): 60%
Actual measured value of herbicidal effect (Senna obtusifolia; Acetochlor alone, 1,000 gai/ha): 20%
Actual measured value of herbicidal effect (Brachiaria platyphylla; Acetochlor alone, 1,000 gai/ha): 60%
Actual measured value of herbicidal effect (Setaria faberi; Acetochlor alone, 1,000 gai/ha): 70%
Actual measured value of herbicidal effect (Ipomoea hederacea [2]; Acetochlor alone, 2,000 gai/ha): 20%
Actual measured value of herbicidal effect (Zea mays [3]; Acetochlor alone, 1,000 gai/ha): 0%
pest or weed control at 0.8 ppm (Ambrosia artemisiifolia; [6]): 40%
Actual measured value of herbicidal effect (Zea mays [4]; Acetochlor alone, 2,000 gai/ha): 0%

CCNc1nc(Cl)nc(NC(C)C)n1 [Atrazine]
Actual measured value of herbicidal effect (Amaranthus palmeri; Atrazine alone, 500 gai/ha): 100%
Actual measured value of herbicidal effect (Ipomoea hederacea [1]; Atrazine alone, 500 gai/ha): 100%
Actual measured value of herbicidal effect (Sorghum halepense; Atrazine alone, 500 gai/ha): 0%
Actual measured value of herbicidal effect (Senna obtusifolia; Atrazine alone, 500 gai/ha): 30%
Actual measured value of herbicidal effect (Brachiaria platyphylla; Atrazine alone, 500 gai/ha): 0%
Actual measured value of herbicidal effect (Setaria faberi; Atrazine alone, 500 gai/ha): 100%
Actual measured value of herbicidal effect (Zea mays [3]; Atrazine alone, 500 gai/ha): 0%
pest or weed control at 200 ppm (Ambrosia artemisiifolia; Ambrosia artemisiifolia, 144 h, applied alone, amount of active ingredient 200 ppm): 10%

O=C(O)c1nc(Cl)ccc1Cl [Clopyralid]
Actual measured value of herbicidal effect (Ipomoea hederacea [2]; Clopyralid alone, 125 gai/ha): 30%
pest or weed control at 12.5 ppm (Ambrosia artemisiifolia; Ambrosia artemisiifolia, 144 h, applied alone, amount of active ingredient 12.5 ppm, read-out: Herbicidal effect (%)): 90%
Actual measured value of herbicidal effect (Zea mays [4]; Clopyralid alone, 125 gai/ha): 0%

COc1nn(C(=O)[N-]S(=O)(=O)c2ccccc2OC(F)(F)F)c(=O)n1C.[Na+] [Flucarbazone-Sodium, reference compound]
Herbicidal effect (Abutilon theophrasti; Flucarbazone-Sodium alone, 3.1 ppm): 20%

CC(C)N(C(=O)COc1nnc(C(F)(F)F)s1)c1ccc(F)cc1 [Flufenacet, reference compound]
pest or weed control at 0.2 ppm (Ambrosia artemisiifolia; Ambrosia artemisiifolia, 144 h, compound applied alone, read-out: Herbicidal effect (%)): 20%
Actual measured value of herbicidal effect (Lolium multiflorum): 70%
Actual measured value of herbicidal effect (Avena fatua): 60%
Actual measured value of herbicidal effect [5]: 40%
Actual measured value of herbicidal effect (Triticum aestivum): 30%

CCc1cc(C)cc(CC)c1-c1c(OC(=O)C(C)(C)C)n2n(c1=O)CCOCC2 [Pinoxaden, reference compound]
Herbicidal effect (Digitaria ciliaris): 10%

Cn1nc(C(F)(F)F)c(CS(=O)(=O)C2=NOC(C)(C)C2)c1OC(F)F [Pyroxasulfone]
Actual measured value of herbicidal effect (Ipomoea hederacea [2]; Pyroxasulfone alone, 94 gai/ha): 60%
pest or weed control at 0.2 ppm (Ambrosia artemisiifolia; Ambrosia artemisiifolia, 144 h, applied alone, read-out: Herbicidal effect (%)): 30%
Actual measured value of herbicidal effect (Zea mays [4]; Pyroxasulfone alone, 94 gai/ha): 0%

COC(=O)c1sccc1S(=O)(=O)NC(=O)Nc1nc(C)nc(OC)n1 [Thifensulfuron-methyl, reference compound]
Herbicidal effect (Abutilon theophrasti; Thifensulfuron-methyl alone, 0.8 ppm): 10%

CCCN(CCC)c1c([N+](=O)[O-])cc(C(F)(F)F)cc1[N+](=O)[O-] [Trifluralin]
pest or weed control at 0.8 ppm (Ambrosia artemisiifolia; [6]): 10%

S-metolachlor
Herbicidal effect (%) (Ambrosia artemisiifolia; compound applied alone, amount of active ingredient 0.8 ppm): 20%
